The results in this text go back to US7112607B2, “Allosteric adenosine receptor modulators” (King Pharmaceuticals Research & Development, Inc., priority 1997, dated 2006).

The target of this assay is T1, human recombinant A1 adenosine receptors (Homo sapiens, UniProt P30542).
T1 construct: expressed in transfected cells; host or cells: Chinese hamster ovary (CHO) cells, CHO:huA1, G-418 selected
T1 sequence (P30542 1-326): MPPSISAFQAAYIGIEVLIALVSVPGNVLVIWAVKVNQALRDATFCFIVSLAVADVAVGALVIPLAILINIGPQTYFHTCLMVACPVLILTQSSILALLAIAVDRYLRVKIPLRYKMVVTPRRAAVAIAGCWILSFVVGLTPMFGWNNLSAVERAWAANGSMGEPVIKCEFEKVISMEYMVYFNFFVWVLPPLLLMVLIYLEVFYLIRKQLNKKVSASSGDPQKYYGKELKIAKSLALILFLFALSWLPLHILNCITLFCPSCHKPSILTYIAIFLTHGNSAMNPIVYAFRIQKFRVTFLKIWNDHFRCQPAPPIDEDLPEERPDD
The experiment in a line: Allosteric enhancement: reduction of cAMP content of CHO:huA1 cells (radioimmunoassay). The format is cell-based. The note with it: forskolin 1 μM, rolipram 20 μM, CPA 0.01 nM, adenosine deaminase, 6 min at 36° C.; for inhibition at 0.01 µM / inhibition at 0.1 µM / inhibition at 1 µM / inhibition at 10 µM: 0.1 h, read-out: Change in cAMP Content from Control (mean + SEM). How it is done: Chinese hamster ovary cells expressing human recombinant A1 adenosine receptors (CHO:huA1 cells) at a density of approximately 8000 fmol/mg protein were prepared as previously described (Kollias-Baker et al., (1997), J. Pharmacol. Exp. Ther. 281: 761–768) and aliquots of the cells at low passage numbers were frozen and stored in liquid nitrogen. When compounds were tested, an aliquot of CHO:huA1 cells were rapidly thawed after removal from liquid nitrogen, then grown in Ham's F12 culture medium with 10% fetal bovine serum and 0.5 mg/mL of antibiotic G-418 (Shryock, Ozeck, and Belardinelli (1998), Mol. Pharmacol 53: 886–893). Cells were passaged thrice weekly. Aliquots of cells were placed into 12-well plates with culture medium, serum, and antibiotic for 48 hours, by which time the cells had grown to a confluent monolayer.
Allosteric enhancement was measured as the action of a test compound at different concentrations (0.01, 0.1, 1 and 10 μM) to reduce the cAMP content of CHO:huA1 cells. To initiate an experiment, growth medium was removed from the 12-well plates and cells were washed once with warm Hanks' buffered saline. The wash solution was then removed and replaced with fresh Hanks' solution containing forskolin (1 μM), rolipram (20 μM), N^6-cyclopentyladenosine (CPA, 0.01 nM), adenosine deaminase (2 U/mL), and the test compound. Forskolin was used to stimulate the activity of adenylyl cyclase, rolipram to inhibit cAMP phosphodiesterase, adenosine deaminase to degrade endogenous adenosine, and CPA to cause a small increase of the number of activated adenosine receptors. After 6 min of incubation at 36° C. in the presence of test compound, the incubation solution was removed and hydrochloric acid (final concentration 50 mM) was added to terminate drug action.
The content of cAMP in acidified extracts of cells was determined by radioimmunoassay as previously described (Kollias-Baker et al., (1997), J. Pharmacol. Exp. Ther. 281: 761–768). Because the magnitude of the effects of allosteric enhancers on CHO:huA1 cells changed subtly with passage number and differed slightly among different aliquots of cells, the actions of the test compounds and the action of a reference compound (PD 81,723) were assessed in each experiment. The effect of each test compound on cAMP content is presented in Table 1 as a percentage of the value of cAMP content in the absence of drug (control, 100%). Each value is a mean±standard error of 6 determinations in each of the number of experiments indicated in the “n” column of the table.

For `Nc1sc2c(c1C(=O)c1ccc3ccccc3c1)CCN(Cc1ccccc1)C2` [Example 32, (2-Amino-6-benzyl-4,5,6,7-tetrahydrothieno[2,3-c]pyridin-3-yl)-naphthalen-2-yl-methanone], the inhibition at 0.01 µM (0.01 μM test compound) came out at 11 ± 4%. The inhibition at 0.1 µM (0.1 μM test compound) is 12 ± 3%. Moreover, the inhibition at 1 µM (1 μM test compound) was 18 ± 3%. In addition, the inhibition at 10 µM (10 μM test compound) was determined as 60 ± 4%.
`Nc1sc2c(c1C(=O)c1cccc3ccccc13)CCCC2` [Example 6, (2-Amino-4,5,6,7-tetrahydrobenzo[b]thiophen-3-yl)-naphthalen-1-yl-methanone]: under “0.01 μM test compound”, the inhibition at 0.01 µM is 11 ± 4%. For the same compound, the inhibition at 0.1 µM (0.1 μM test compound) is 15 ± 4%. In addition, the inhibition at 1 µM (1 μM test compound) worked out at 22 ± 3%. Further, the inhibition at 10 µM (10 μM test compound) was 52 ± 3%.
Consider `Nc1sc2c(c1C(=O)c1ccc3ccccc3c1)CCCC2` [Example 30, (2-Amino-4,5,6,7-tetrahydrobenzo[b]thiophen-3-yl)-naphthalen-2-yl-methanone], for which, where the note is “0.01 μM test compound”, the inhibition at 0.01 µM amounted to 13 ± 4%. Besides, the inhibition at 0.1 µM (0.1 μM test compound) amounted to 24 ± 3%. For the same compound, where the note is “1 μM test compound”, the inhibition at 1 µM came to 28 ± 2%. Besides, the inhibition at 10 µM (10 μM test compound) was 42 ± 3%.
For `Cc1sc(N)c(C(=O)c2ccc3ccccc3c2)c1C` [Example 33, (2-Amino-4,5-dimethylthiophen-3-yl)-naphthalen-2-yl-methanone], for the setting “0.01 μM test compound”, the inhibition at 0.01 µM was found to be 1 ± 3%. Also, the inhibition at 0.1 µM (0.1 μM test compound) was determined as 4 ± 3%. The inhibition at 1 µM (1 μM test compound) is 8 ± 3%. Also, the inhibition at 10 µM (10 μM test compound) turned out to be 28 ± 3%.
The like results for `Nc1sc2c(c1C(=O)c1ccc(I)c3ccccc13)CCC2` [Example 24, (2-Amino-1,6-dihydro-4H-cyclopenta[b]thiophen-3-yl)-(4-iodonaphthalen-1-yl)-methanone] were, in that order, 6 ± 3%, 8 ± 3%, 22 ± 4% and 75 ± 1%.
As for `Cc1sc(N)c(C(=O)c2ccco2)c1C` [Example 13, (2-Amino-4,5-dimethylthiophen-3-yl)-furan-2-yl-methanone], the inhibition at 0.01 µM (0.01 μM test compound) turned out to be 4 ± 5%. Besides, the inhibition at 0.1 µM (0.1 μM test compound) is -11 ± 5%. In addition, the inhibition at 1 µM (1 μM test compound) is 7 ± 5%. Further, the inhibition at 10 µM (10 μM test compound) was -5 ± 10%.
For `Nc1sc2c(c1C(=O)c1ccc(Cl)c3ccccc13)CCC2` [Example 25, (2-Amino-5,6-dihydro-4H-cyclopenta[b]thiophen-3-yl)-(4-chloronaph-thalen-1-yl)-methanone], the “Change in cAMP Content from Control (mean + SEM)” value (shortened to “Change … (mean + SEM)”) reads like this: (0.01 μM test compound) −10 ± 2%; (0.1 μM test compound) −15 ± 4%; (1 μM test compound) −27 ± 2%; (10 μM test compound) −55 ± 2%.
Take `COc1ccc(C(=O)c2c(N)sc3c2CCCC3)c2ccccc12` [Example 27, (2-Amino-4,5,6,7-tetrahydrobenzo[b]thiophen-3-yl)-(4-methoxynaph-thalen-1-yl)-methanone]: the “Change … (mean + SEM)” value runs as follows: (0.01 μM test compound) 5 ± 4%; (0.1 μM test compound) −5 ± 4%; (1 μM test compound) −3 ± 3%; (10 μM test compound) −17 ± 1%.
In the case of `Nc1sc2c(c1C(=O)c1ccccc1)CCSC2` [Example 1, (2-Amino-4,7-dihydro-5H-thieno[2,3-c]thiopyran-3-yl)-phenyl-methanone], the inhibition at 0.01 µM (0.01 μM test compound) is -9 ± 4%. For the same compound, under “0.1 μM test compound”, the inhibition at 0.1 µM was found to be 6 ± 3%. For the same compound, the inhibition at 1 µM (1 μM test compound) worked out at 15 ± 2%. Further, the inhibition at 10 µM (10 μM test compound) turned out to be 35 ± 2%.
For the compound `Nc1sc2c(c1C(=O)c1cc3ccccc3o1)CCN(Cc1ccccc1)C2` [Example 16, (2-Amino-6-benzyl-4,5,6,7-tetrahydrothieno[2,3-c]pyridin-3-yl)-benzofuran-2-yl-methanone], the inhibition at 0.01 µM (0.01 μM test compound) is -4 ± 3%. Besides, the inhibition at 0.1 µM (0.1 μM test compound) is -14 ± 4%. Besides, the inhibition at 1 µM (1 μM test compound) was determined as 10 ± 2%. Further, under “10 μM test compound”, the inhibition at 10 µM is -11 ± 4%.
In the case of `Nc1sc2c(c1C(=O)c1ccc(Cl)cc1)CCS2` [Example 3, (2-Amino-4,5-dihydrothieno[2,3-b]thiophen-3-yl)-(4-chlorophenyl)-methanone], the inhibition at 0.01 µM (0.01 μM test compound) stood at 1 ± 4%. Also, for the setting “0.1 μM test compound”, the inhibition at 0.1 µM is -11 ± 4%. The inhibition at 1 µM (1 μM test compound) was -1 ± 3%. Also, the inhibition at 10 µM (10 μM test compound) came out at 35 ± 4%.
On the same counts, the results for `Nc1sc2c(c1C(=O)c1ccco1)CCC2` [Example 11, (2-Amino-5,6-dihydro-4H-cyclopenta[b]thiophen-3-yl)-furan-2-yl-methanone] are -3 ± 4%, 14 ± 4%, 0.8 ± 3% and 23 ± 2%.
Turning to `CC(=O)Nc1sc2c(c1C(=O)c1ccco1)CCCC2` [Example 10, N-[3-(Furan-2-carbonyl)-4,5,6,7-tetrahydrobenzo[b]thiophen-2-yl]-acetamide], the inhibition at 0.01 µM (0.01 μM test compound) stood at 8 ± 5%. Also, the inhibition at 0.1 µM (0.1 μM test compound) amounted to 14 ± 4%. Moreover, the inhibition at 1 µM (1 μM test compound) is 25 ± 5%. Moreover, the inhibition at 10 µM (10 μM test compound) was -8 ± 5%.
For `COc1ccc(C(=O)c2c(N)sc3c2CCC3)c2ccccc12` [Example 23], the “Change … (mean + SEM)” value is reported as −6 ± 3% (0.01 μM test compound), −3 ± 4% (0.1 μM test compound), −8 ± 4% (1 μM test compound) and −35 ± 3% (10 μM test compound).
As for `Nc1sc2c(c1C(=O)c1ccc(Br)c3ccccc13)CCC2` [Example 22, (2-Amino-5,6-dihydro-4H-cyclopenta[b]thiophen-3-yl)-(4-bromonaphthalen-1-yl)-methanone], the inhibition at 0.01 µM (0.01 μM test compound) was -3 ± 3%. Moreover, for the setting “0.1 μM test compound”, the inhibition at 0.1 µM is -19 ± 5%. Besides, the inhibition at 1 µM (1 μM test compound) was 14 ± 5%. Besides, the inhibition at 10 µM (10 μM test compound) stood at 67 ± 3%.
